One assay has as its system rumen metabolism. To be noted: known prior art, administered to ruminant animals; cited from earlier work.
In assay [1] the test system is methane production from ruminal fluid. Put plainly: in vitro assay of inhibition of methane production from ruminal fluid. As to conditions: 15-16 hours; for IC50: in vitro, diluted rumen fluid with dried ground hay, pH 6.9-7.0, 39° C., read-out: ED50, concentration of the test compound required to produce a 50% reduction in methane production; for inhibition at 1 µg/mL: at 1 μg./ml.; for inhibition at 1 µg/mL / inhibition at 3 µg/mL: in vitro rumen fluid, 39° C.; for inhibition at 3 µg/mL: at 3 μg./ml., read-out: % Methane Inhibition (compounds indicated by *). It is filed as cell-based, steers (pooled rumen fluid). How it is done: Rumen fluid is collected on a regular routine basis from two steers, which are fed on the same hay-plus-concentrate diet. Sampling time is standardised as far as possible, and the fluid from the two animals is pooled on a 50/50 basis. Large particulate matter is removed by filtering the pooled fluid through four layers of muslin cloth. The filtrate is then diluted in the ratio of one volume of filtrate to three volumes of an artificial rumen fluid (prepared as described by G. L. Bales et al., Journal of Dairy Science, 1976, volume 59, page 1850, but omitting acetic acid), and the pH of the mixture is adjusted to 6.9-7.0 with saturated aqueous sodium carbonate solution. Aliquots (50 ml.) of this mixture are dispensed into 100 ml. conical flasks containing dried ground hay (0.5 g.), and each flask is used to test a test compound at a particular concentration.
The test compound is added to the conical flask as a solution in ethanol, the flask is flushed with carbon dioxide gas, stoppered with a suba-seal, and incubated at 39° C. for 15-16 hours. After one hour, a narrow bore needle is inserted through the suba-seal to relieve the gas pressure, and the needle is withdrawn 30 minutes before the incubation is ended. Fermentation is then stopped by placing the flask in ice, and after 15 minutes cooling, the gas over the liquid is analysed for methane by gas chromatography, and the concentration of the test compound required to produce a 50% reduction in methane production (ED50 in μg./ml.) is calculated.
The test of methane inhibition described in Example 12 was repeated for various other compounds, to give the results shown below. The results are expressed as the percentage inhibition of methane production caused by 1 μg./ml. of a test compound, except for those compounds indicated by *, for which 3 μg./ml. was used.

SMILES strings stand for the structures. Values after ≈ are worked out from the molar mass of the structure shown.

The source of these data is patent US4268510A, “1,3-Benzoxazine trichloromethyl derivatives, compositions and use” (Imperial Chemical Industries Limited, priority 1978, dated 1981).

For orientation: inhibition means the change of the read-out against control, counted positive when it falls.

Regarding `NC(=O)C(Cl)(Cl)Cl` [trichloroacetamide], in the assay with rumen metabolism, the “effect on rumen metabolism (reducing methane production)” value is reported as “beneficial effect on rumen metabolism”.

For `O=CN1C(=O)c2ccccc2OC1C(Cl)(Cl)Cl` (stereo not drawn) [drawing 6; R3=H; R5=HCO, 3-formyl-3,4-dihydro-2-trichloromethyl-2H-benzo[e]-[1,3]-oxazin-4-one], in assay [1], the IC50 was 0.5 µg/mL (≈ 1.7 µM).

In turn, `COC(=O)C1OC(C(Cl)(Cl)Cl)Nc2ccccc21` (stereo not drawn) [drawing 9; R1=H; R3=H; R11=CH3 O . CO, methyl 1,2-dihydro-2-trichloromethyl-4H-benzo[d]-[1,3]-oxazine-4-carboxylate] gave an inhibition at 1 µg/mL in assay [1] of 46%.

As to `COc1ccc2c(c1)COC(C(Cl)(Cl)Cl)N2` (stereo not drawn) [drawing 7; R3=CH3 O, 1,2-dihydro-6-methoxy-2-trichloromethyl-4H-benzo[d]-[1,3]-oxazine], the IC50 in assay [1] was 0.3 µg/mL (≈ 1.06 µM).

For the molecule `O=C1NC(C(Cl)(Cl)Cl)Oc2ccc(NCc3ccc(Cl)cc3)cc21` (stereo not drawn) [6-p-chlorobenzylamino-3,4-dihydro-2-tichloromethyl-2H-benzo[e]-[1,3]-oxazin-4l-one], in assay [1], the inhibition at 3 µg/mL is 86%.

Turning to `O=C1NC(C(Cl)(Cl)Cl)Oc2ccc(S(=O)(=O)O)cc21` (stereo not drawn) [drawing 8; R1=H; R3=SO3 H; R5=H], in assay [1], testing at 1 µg/mL gave an inhibition of 11%.

Take `CCOC(=O)c1ccc2c(c1)C(=O)NC(C(Cl)(Cl)Cl)N2` (stereo not drawn) [drawing 10; R3=C2 H5 O . CO; R5=H; R6=H, ethyl 1,2-dihydro-4-oxo-2-trichloromethylquinazoline-6-carboxylate]: the inhibition at 3 µg/mL in assay [1] is 71%.

Consider `O=Cc1ccc2c(c1)C(=O)NC(C(Cl)(Cl)Cl)O2` (stereo not drawn) [drawing 8; R1=H; R3=CHO; R5=H], for which the inhibition at 1 µg/mL in assay [1] came to 47%.

As for `N#Cc1ccc2c(c1)COC(C(Cl)(Cl)Cl)N2` (stereo not drawn) [drawing 7; R3=CN, 1,2-dihydro-2-trichloromethyl-4H-benzo[d]-[1,3]-oxazine-6-carbonitrile], the IC50 in assay [1] is 0.3 µg/mL (≈ 1.08 µM).

In the case of `O=C1NC(C(Cl)(Cl)Cl)Oc2ccccc21` (stereo not drawn) [drawing 6; R3=H; R5=H, 3,4-dihydro-2-trichloromethyl-2H-benzo[e]-[1,3]-oxazin-4-one], the IC50 in assay [1] stood at 0.5 µg/mL (≈ 1.88 µM).

Turning to `CC(=O)Nc1ccc2c(c1)C(=O)NC(C(Cl)(Cl)Cl)O2` (stereo not drawn) [drawing 8; R1=H; R3=CH3 CONH; R5=H, 6-acetamido-3,4-dihydro-2-trichloromethyl-2H-benzo[e]-[1,3]-oxazin-4-one], the inhibition at 1 µg/mL in assay [1] came to 96%.

Take `O=C1NC(C(Cl)(Cl)Cl)Oc2ccc(Br)cc21` (stereo not drawn) [drawing 6; R3=Br; R5=H]: in assay [1], the IC50 turned out to be 0.5 µg/mL (≈ 1.45 µM).

As to `Cc1ccc2c(c1)C(=O)NC(C(Cl)(Cl)Cl)O2` (stereo not drawn) [drawing 6; R3=CH3; R5=H], the IC50 in assay [1] came to 1 µg/mL (≈ 3.56 µM).

Take `O=C1NC(C(Cl)(Cl)Cl)Nc2ccc(Cl)cc21` (stereo not drawn) [drawing 5; R3=Cl; R5=H; R6=H]: the IC50 in assay [1] amounted to 0.3 µg/mL (≈ 1 µM).

With `CC(=O)Oc1ccc2c(c1)C(=O)N(C(C)=O)C(C(Cl)(Cl)Cl)O2` (stereo not drawn) [drawing 6; R3=CH3 CO . O; R5=CH3 CO, 6-acetoxy-3-acetyl-3,4-dihydro-2-trichloromethyl-2H-benzo[e]-[1,3]-oxazin-4-one], the IC50 in assay [1] is 1 µg/mL (≈ 2.73 µM).

As to `CCN(CC)C(=O)c1ccc2c(c1)C(=O)NC(C(Cl)(Cl)Cl)O2` (stereo not drawn) [drawing 6; R3=(C2 H5)2 N . CO; R5=H, 3,4-dihydro-N,N-diethyl-4-oxo-2-trichloromethyl-2H-benzo[e]-[1,3]-oxazine-6-carboxamide], the IC50 in assay [1] turned out to be 0.3 µg/mL (≈ 0.82 µM).

Turning to `CCCCOc1ccc2c(c1)C(=O)NC(C(Cl)(Cl)Cl)O2` (stereo not drawn) [drawing 6; R3=CH3 (CH2)3 O; R5=H, 6-butyloxy-3,4-dihydro-2-trichloromethyl-2H-benzo[e]-[1,3]-oxazin-4-one], the IC50 in assay [1] came to 3 µg/mL (≈ 8.86 µM).

In assay [1], `Nc1ccc2c(c1)C(=O)NC(C(Cl)(Cl)Cl)O2` (stereo not drawn) [drawing 8; R1=H; R3=NH2; R5=H, 6-amino-3,4-dihydro-2-trichloromethyl-2H-benzo[e]-[1,3]-oxazin-4-one] showed an inhibition at 1 µg/mL of 98%.

As for `CC(=O)Oc1ccc2c(c1)C(=O)NC(C(Cl)(Cl)Cl)O2` (stereo not drawn) [drawing 6; R3=CH3 CO . O; R5=H, 6-acetoxy-3,4-dihydro-2-trichloromethyl-2H-benzo[e]-[1,3]-oxazin-4-one], in assay [1], the IC50 worked out at 0.3 µg/mL (≈ 0.924 µM).

With `O=CC(Cl)(Cl)Cl` [chloral], the “effect on rumen metabolism (reducing methane production)” value in the assay with rumen metabolism is “beneficial effect on rumen metabolism”.

The molecule `COC(=O)c1ccc2c(c1)COC(C(Cl)(Cl)Cl)N2` (stereo not drawn) [drawing 9; R1=H; R3=CH3 O . CO; R11=H, methyl 1,2-dihydro-2-trichloromethyl-4H-benzo[d]-[1,3]-oxazine-6-carboxylate] registered an inhibition at 1 µg/mL in assay [1] of 100%.

For the molecule `O=C(O)c1cc(C(=O)O)c2c(c1)C(=O)NC(C(Cl)(Cl)Cl)O2` (stereo not drawn) [drawing 8; R1=COOH; R3=COOH; R5=H, 3,4-dihydro-4-oxo-2-trichloromethyl-2H-benzo[e]-[1,3]-oxazine-6,8-dicarboxylic acid], in assay [1], the inhibition at 1 µg/mL stood at 38%.

In the case of `ClC(Cl)(Cl)C1Nc2ccccc2CO1` (stereo not drawn) [drawing 7; R3=H, 1,2-dihydro-2-trichloromethyl-4H-benzo[d]-[1,3]-oxazine], the IC50 in assay [1] was determined as 1 µg/mL (≈ 3.96 µM).

In assay [1], `Cc1ccc(S(=O)(=O)Nc2ccc3c(c2)C(=O)NC(C(Cl)(Cl)Cl)O3)cc1` (stereo not drawn) [3,4-dihydro-6-tosylamino-2-trichloromethyl-2H-benzo[e]-[1,3]-oxazin-4-one] displayed an inhibition at 1 µg/mL of 94%.
